Experimental data taken from patent publication US11498949B2, “System and method for high-yield transient expression in mammalian cells” (LIFE TECHNLOLOGIES CORPORATION, priority 2012, dated 2022).

System: hIgG expression
Test: Expression enhancers in the transient transfection system, hIgG yield
Format: cell-based
Conditions: enhancer added alone to transient transfection; vs. control with neither Enhancer 1 nor Enhancer 2
From the text: Components were formulated into 2 stable Enhancer solutions.

SMILES: CCCC(CCC)C(=O)O [Enhancer 1, valproic acid]
- effect on hIgG expression: doubles hIgG expression

SMILES: CCC(=O)[O-].[Na+] [Enhancer 2, sodium propionate]
- effect on hIgG expression: no strong effect alone
